Target: T1, Estrogen Receptor (ERα) in MCF-7 human ductal carcinoma breast cell line (Homo sapiens, UniProt P03372)
T1 construct: endogenous in cells; host or cells: MCF-7
T1 sequence (P03372 1-595): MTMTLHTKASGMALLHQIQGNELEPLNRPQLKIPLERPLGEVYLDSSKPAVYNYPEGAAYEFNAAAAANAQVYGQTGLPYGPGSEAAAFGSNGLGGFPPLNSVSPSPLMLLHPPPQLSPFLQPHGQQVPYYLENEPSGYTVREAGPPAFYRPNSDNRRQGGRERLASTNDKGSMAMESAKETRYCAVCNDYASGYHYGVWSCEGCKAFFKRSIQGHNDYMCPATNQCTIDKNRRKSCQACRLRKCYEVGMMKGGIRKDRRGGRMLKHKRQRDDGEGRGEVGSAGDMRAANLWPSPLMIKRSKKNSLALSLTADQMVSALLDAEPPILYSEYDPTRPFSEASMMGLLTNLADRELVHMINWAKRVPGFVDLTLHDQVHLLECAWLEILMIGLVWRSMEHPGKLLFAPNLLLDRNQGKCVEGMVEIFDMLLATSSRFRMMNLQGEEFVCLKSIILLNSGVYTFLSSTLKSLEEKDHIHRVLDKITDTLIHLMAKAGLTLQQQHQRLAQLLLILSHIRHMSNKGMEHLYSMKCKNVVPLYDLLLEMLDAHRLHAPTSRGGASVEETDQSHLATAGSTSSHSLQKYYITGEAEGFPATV
Test: MCF-7 ER degradation assay (cell based immuno-fluorescence)
Settings: MCF-7 cells; for ER degradation ≥ 90% at 0.3 μM: ER degradation by fulvestrant at 0.3 μM is defined as 100%; for DC50: 18-22 hours incubation, 50% reduction of ERα expression, single experiment or average of two or more, read-out: MCF-7 ER degradation IC50
How it was run: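 MCF-7 human ductal carcinoma breast cells were seeded at 3.75×10^4 cells per mL (40 μL per well) in 384 well plates with phenol red free DMEM containing 2 mM L-Glutamine and 5% (v/v) Charcoal/Dextran treated foetal calf serum. After overnight culture, compounds were acoustically dispensed, incubated 18-22 hours, then cells were formaldehyde-fixed and immunostained for ERα.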

For Cc1ncsc1-c1ccc(CNC(=O)[C@@H]2C[C@@H](O)CN2C(=O)[C@@H](NC(=O)COCCCCCCCCOc2ccc([C@@H]3c4[nH]c5ccccc5c4C[C@@H](C)N3CC(F)F)nc2)C(C)(C)C)cc1 [Example 13, (2S,4R)-1-((S)-2-(2-((8-((6-((1S,3R)-2-(2,2-Difluoroethyl)-3-methyl-2,3,4,9-tetrahydro-1H-pyrido[3,4-b]indol-1-yl)pyridin-3-yl)oxy)octyl)oxy)acetamido)-3,3-dimethylbutanoyl)-4-hydroxy-N-(4-(4-methylthiazol-5-yl)benzyl)pyrrolidine-2-carboxamide], the “ER degradation ≥ 90% at 0.3 μM” value was “•” and the DC50 was 3.7 nM.

Cc1ncsc1-c1ccc(CNC(=O)[C@@H]2C[C@@H](O)CN2C(=O)[C@@H](NC(=O)COCCCCOCCOc2cc(F)c([C@@H]3c4[nH]c5ccccc5c4C[C@@H](C)N3CC(C)(C)F)c(F)c2)C(C)(C)C)cc1 [Example 16, (2S,4R)-1-((S)-2-(2-(4-(2-(3,5-Difluoro-4-((1R,3R)-2-(2-fluoro-2-methylpropyl)-3-methyl-2,3,4,9-tetrahydro-1H-pyrido[3,4-b]indol-1-yl)phenoxy)ethoxy)butoxy)acetamido)-3,3-dimethylbutanoyl)-4-hydroxy-N-(4-(4-methylthiazol-5-yl)benzyl)pyrrolidine-2-carboxamide] was tested, and the “ER degradation ≥ 90% at 0.3 μM” value was “••” and the DC50 was 0.8 nM.

In the case of Cc1ncsc1-c1ccc(CNC(=O)[C@@H]2C[C@@H](O)CN2C(=O)[C@@H](NC(=O)COCc2ccc(C(=O)Nc3cc(F)c([C@@H]4c5[nH]c6ccccc6c5C[C@@H](C)N4CC(C)(C)F)c(F)c3)nc2)C(C)(C)C)cc1 [Example 144, N-(3,5-Difluoro-4-((1R,3R)-2-(2-fluoro-2-methylpropyl)-3-methyl-2,3,4,9-tetrahydro-1H-pyrido[3,4-b]indol-1-yl)phenyl)-5-((2-(((S)-1-((2S,4R)-4-hydroxy-2-((4-(4-methylthiazol-5-yl)benzyl)carbamoyl)pyrrolidin-1-yl)-3,3-dimethyl-1-oxobutan-2-yl)amino)-2-oxoethoxy)methyl)picolinamide], the “ER degradation ≥ 90% at 0.3 μM” value is reported as “••” and the DC50 is reported as 0.5 nM.

With Cc1ncsc1-c1ccc([C@H](C)NC(=O)[C@@H]2C[C@@H](O)CN2C(=O)[C@@H](NC(=O)COCCCCCOc2cc(F)c([C@@H]3c4[nH]c5ccccc5c4C[C@@H](C)N3CC(C)(C)F)c(F)c2)C(C)(C)C)cc1 [Example 28, (2S,4R)-1-((S)-2-(2-((5-(3,5-Difluoro-4-((1R,3R)-2-(2-fluoro-2-methylpropyl)-3-methyl-2,3,4,9-tetrahydro-1H-pyrido[3,4-b]indol-1-yl)phenoxy)pentyl)oxy)acetamido)-3,3-dimethylbutanoyl)-4-hydroxy-N—((S)-1-(4-(4-methylthiazol-5-yl)phenyl)ethyl)pyrrolidine-2-carboxamide] the “ER degradation ≥ 90% at 0.3 μM” value was “•” and the DC50 was 0.8 nM.

For Cc1ncsc1-c1ccc(CNC(=O)[C@@H]2C[C@@H](O)CN2C(=O)[C@@H](NC(=O)COCCCCCCCOc2ccc([C@@H]3c4[nH]c5ccccc5c4C[C@@H](C)N3CC(F)F)nc2)C(C)(C)C)cc1 [Example 6, (2S,4R)-1-((S)-2-(2-((7-((6-((1S,3R)-2-(2,2-Difluoroethyl)-3-methyl-2,3,4,9-tetrahydro-1H-pyrido[3,4-b]indol-1-yl)pyridin-3-yl)oxy)heptyl)oxy)acetamido)-3,3-dimethylbutanoyl)-4-hydroxy-N-(4-(4-methylthiazol-5-yl)benzyl)pyrrolidine-2-carboxamide], the “ER degradation ≥ 90% at 0.3 μM” value was “••” and the DC50 was 3.6 nM.

For Cc1ncsc1-c1ccc([C@@H](CN(C)C)NC(=O)[C@@H]2C[C@@H](O)CN2C(=O)[C@@H](NC(=O)COCCOCCOCCOc2cc(F)c([C@@H]3c4[nH]c5ccccc5c4C[C@@H](C)N3CC(C)(C)F)c(F)c2)C(C)(C)C)cc1 [Example 107, (2S,4R)-1-[(2S)-2-[[2-[2-[2-[2-[3,5-Difluoro-4-[(1R,3R)-2-(2-fluoro-2-methyl-propyl)-3-methyl-1,3,4,9-tetrahydropyrido[3,4-b]indol-1-yl]phenoxy]ethoxy]ethoxy]ethoxy]acetyl]amino]-3,3-dimethyl-butanoyl]-N-[(1S)-2-(dimethylamino)-1-[4-(4-methylthiazol-5-yl)phenyl]ethyl]-4-hydroxy-pyrrolidine-2-carboxamide], the “ER degradation ≥ 90% at 0.3 μM” value was “••” and the DC50 was 1 nM.

In the case of Cc1ncsc1-c1ccc(CNC(=O)[C@@H]2C[C@@H](O)CN2C(=O)[C@@H](NC(=O)COCCOCCCCCOc2cc(F)c([C@@H]3c4[nH]c5ccccc5c4C[C@@H](C)N3CC(C)(F)F)c(F)c2)C(C)(C)C)cc1 [Example 166, (2S,4R)-1-((S)-2-(2-(2-((5-(4-((1R,3R)-2-(2,2-Difluoropropyl)-3-methyl-2,3,4,9-tetrahydro-1H-pyrido[3,4-b]indol-1-yl)-3,5-difluorophenoxy)pentyl)oxy)ethoxy)acetamido)-3,3-dimethylbutanoyl)-4-hydroxy-N-(4-(4-methylthiazol-5-yl)benzyl)pyrrolidine-2-carboxamide], the “ER degradation ≥ 90% at 0.3 μM” value is reported as “••” and the DC50 is reported as 0.8 nM.

In the case of Cc1ncsc1-c1ccc(CNC(=O)[C@@H]2C[C@@H](O)CN2C(=O)[C@@H](NC(=O)COCc2cccc(COc3cc(F)c([C@@H]4c5[nH]c6ccccc6c5C[C@@H](C)N4CC(C)(C)F)c(F)c3)n2)C(C)(C)C)cc1 [Example 132, (2S,4R)-1-((S)-2-(2-((6-((3,5-Difluoro-4-((1R,3R)-2-(2-fluoro-2-methylpropyl)-3-methyl-2,3,4,9-tetrahydro-1H-pyrido[3,4-b]indol-1-yl)phenoxy)methyl)pyridin-2-yl)methoxy)acetamido)-3,3-dimethylbutanoyl)-4-hydroxy-N-(4-(4-methylthiazol-5-yl)benzyl)pyrrolidine-2-carboxamide], the “ER degradation ≥ 90% at 0.3 μM” value is reported as “•” and the DC50 is reported as 0.6 nM.

Cc1ncsc1-c1ccc(CNC(=O)[C@@H]2C[C@@H](O)CN2C(=O)[C@@H](NC(=O)COCCOCCOCCOc2cc(F)c([C@@H]3c4[nH]c5ccccc5c4C[C@@H](C)N3C[C@H](C)CO)c(F)c2)C(C)(C)C)cc1 [Example 101, (2S,4R)-1-((S)-2-(tert-butyl)-14-(3,5-difluoro-4-((1R,3R)-2-((S)-3-hydroxy-2-methylpropyl)-3-methyl-2,3,4,9-tetrahydro-1H-pyrido[3,4-b]indol-1-yl)phenoxy)-4-oxo-6,9,12-trioxa-3-azatetradecanoyl)-4-hydroxy-N-(4-(4-methylthiazol-5-yl)benzyl)pyrrolidine-2-carboxamide] was tested, and the “ER degradation ≥ 90% at 0.3 μM” value was “•” and the DC50 was 1.8 nM.

Cc1ncsc1-c1ccc([C@H](C)NC(=O)[C@@H]2C[C@@H](O)CN2C(=O)[C@@H](NC(=O)COCCCCOCCCOc2cc(F)c([C@@H]3c4[nH]c5ccccc5c4C[C@@H](C)N3CC(C)(C)F)c(F)c2)C(C)(C)C)cc1 [Example 154, (2S,4R)-1-((S)-2-(2-(4-(3-(3,5-Difluoro-4-((1R,3R)-2-(2-fluoro-2-methylpropyl)-3-methyl-2,3,4,9-tetrahydro-1H-pyrido[3,4-b]indol-1-yl)phenoxy)propoxy)butoxy)acetamido)-3,3-dimethylbutanoyl)-4-hydroxy-N—((S)-1-(4-(4-methylthiazol-5-yl)phenyl)ethyl)pyrrolidine-2-carboxamide] was tested, and the “ER degradation ≥ 90% at 0.3 μM” value was “•” and the DC50 was 0.7 nM.

Cc1ncsc1-c1ccc(CNC(=O)C2CC(O)CN2C(=O)C(NC(=O)COCCOc2cc(F)c(C3c4[nH]c5ccccc5c4CC(C)N3CC(C)(C)F)c(F)c2)C(C)(C)C)cc1 [Example 40, (2S,4R)-1-((S)-2-(2-(2-(3,5-Difluoro-4-((1R,3R)-2-(2-fluoro-2-methylpropyl)-3-methyl-2,3,49-tetrahydro-1H-pyrido[3,4-b]indol-1-yl)phenoxy)ethoxy)acetamido)-3,3-dimethylbutanoyl)-4-hydroxy-N-(4-(4-methylthiazol-5-yl)benzyl)pyrrolidine-2-carboxamide] was tested, and the “ER degradation ≥ 90% at 0.3 μM” value was “•” and the DC50 was 0.6 nM.

For Cc1ncsc1-c1ccc(CNC(=O)[C@@H]2C[C@@H](O)CN2C(=O)[C@@H](NC(=O)COCCOCCCCCOc2cc(F)c([C@@H]3c4[nH]c5ccccc5c4C[C@@H](C)N3CC(F)(F)F)c(F)c2)C(C)(C)C)cc1 [Example 139, (2S,4R)-1-((S)-2-(2-(2-((5-(3,5-Difluoro-4-((1R,3R)-3-methyl-2-(2,2,2-trifluoroethyl)-2,3,4,9-tetrahydro-1H-pyrido[3,4-b]indol-1-yl)phenoxy)pentyl)oxy)ethoxy)acetamido)-3,3-dimethylbutanoyl)-4-hydroxy-N-(4-(4-methylthiazol-5-yl)benzyl)pyrrolidine-2-carboxamide], the “ER degradation ≥ 90% at 0.3 μM” value was “••” and the DC50 was 1.1 nM.

Reference: patent US10519152B2, “Compounds and their use in treating cancer” (AstraZeneca AB, priority 2017, dated 2019)
